Experimental data reported in patent US20240391941A1, “NAPHTHYRIDINONE DERIVATIVES FOR THE TREATMENT OF A DISEASE OR DISORDER” (Novartis AG, priority 2023, published 2024).

Tests used:
GIRK1/4 = molecular target: T1, GIRK1/4 (Homo sapiens, UniProt P48544+P48549); test: GIRK1/4 in vitro activity assay (IonWorks Quattro population patch clamp); assay type: cell-based; conditions: GIRK 1/4 HEK293 stable cells, inward potassium current; read-out: inhibitory activity (IC50)
T1 sequence (P48549 1-501): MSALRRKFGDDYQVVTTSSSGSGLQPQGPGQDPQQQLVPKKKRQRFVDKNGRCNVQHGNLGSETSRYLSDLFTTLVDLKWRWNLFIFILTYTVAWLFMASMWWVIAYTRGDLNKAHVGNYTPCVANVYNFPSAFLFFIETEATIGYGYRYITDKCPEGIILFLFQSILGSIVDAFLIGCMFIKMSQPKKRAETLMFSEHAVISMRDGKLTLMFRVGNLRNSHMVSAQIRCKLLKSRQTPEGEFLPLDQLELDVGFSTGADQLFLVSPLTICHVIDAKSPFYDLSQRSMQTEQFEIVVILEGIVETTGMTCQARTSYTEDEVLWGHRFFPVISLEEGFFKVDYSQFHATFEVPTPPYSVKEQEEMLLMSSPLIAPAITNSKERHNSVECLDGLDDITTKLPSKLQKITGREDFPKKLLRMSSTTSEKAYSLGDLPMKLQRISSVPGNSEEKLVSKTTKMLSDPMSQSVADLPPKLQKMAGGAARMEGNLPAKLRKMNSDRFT
T1 sequence (P48544 1-419): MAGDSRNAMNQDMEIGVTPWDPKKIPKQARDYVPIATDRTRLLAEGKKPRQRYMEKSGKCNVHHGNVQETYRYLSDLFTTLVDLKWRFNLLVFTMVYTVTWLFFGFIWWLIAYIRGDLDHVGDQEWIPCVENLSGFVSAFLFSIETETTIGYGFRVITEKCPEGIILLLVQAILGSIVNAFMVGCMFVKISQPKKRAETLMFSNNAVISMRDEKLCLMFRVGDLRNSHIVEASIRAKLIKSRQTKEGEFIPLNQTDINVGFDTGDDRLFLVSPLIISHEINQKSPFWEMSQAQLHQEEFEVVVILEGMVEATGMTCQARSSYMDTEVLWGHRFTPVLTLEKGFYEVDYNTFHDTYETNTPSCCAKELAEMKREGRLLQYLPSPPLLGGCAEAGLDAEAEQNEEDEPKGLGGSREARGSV
Protocol: The GIRK1/4 activity of the parent compounds formed after cleavage upon hydrolysis of the phosphoric acid ester group of the compounds according to the present disclosure was assessed by the following in vitro method.
• a. External buffer: 10 mM NaCl, 50 mM Na Gluconate, 80 mM K Gluconate, 1.8 mM CaCl2, 1 mM MgCl2, 10 mM HEPES, 10 mM Glucose, pH 7.4; osmolarity […]. • b. Internal buffer: 30 mM KCl, 100 mM K Gluconate, 1 mM MgCl2, 10 mM HEPES, 1 mM EGTA, 10 mM NaCl, pH 7.2; osmolarity […].
• c. Prepare seven-fold compound dilution series (10 mM to 20 μM) in 100% DMSO, in 384-well polypropylene plates. • d. Propafenone (Sigma Aldrich, catalog number P4670) was used as a positive control and DMSO for neutral control. • e. Resuspend 1 μl of compounds in DMSO into 66.7 μl external buffer in 384-well polypropylene plate and load into Plate 1 section of Molecular Devices Quattro.
• f. […]
Quattro was controlled using IonWorks v2 software to perform the following steps: • p. […] Measured magnitude of inward potassium current at time point between 1200-1220 ms from start of Pulse 1 (i.e. during the voltage ramp phase). • t. […]
IC50 values were calculated by plotting the percentage of current inhibition (normalized to the DMSO-only control) as a function of compound concentration using standard data analysis software.

[1] = In vitro conversion of pro-drug to parent compound by intestinal S9 fraction (rat); assay type: in vitro ADME; conditions: Sprague-Dawley, pooled intestinal S9 fraction, 37° C., read-out: T1/2 of conversion to the parent compound
Protocol: (§1) Drug stock solutions (100 μM) were prepared in methanol by two subsequent 1:10 dilutions from 10 mM DMSO drug solutions.
(§2) Frozen pooled intestinal S9 fractions (final protein concentration 2 mg/mL), alamethicin (25 μg/mg). 0.IM phosphate buffer containing 1 mM magnesium chloride and NADPH (final concentration 1 mM) plus UDPGA (final concentration 3.5 mM) are pre incubated at 37° C. prior to the addition of test compound (final substrate concentration 1 μM; final DMSO concentration 0.25%) to initiate the reaction. An additional incubation is performed in the absence of cofactors (NADPH, UDPGA).
(§3) Incubation plate was incubated on a shaker with temperature controlled at 37° C. Sequential samples were removed at designated timepoints (0, 5, 15, 30, 60 and 120 mins) and quenched with 4 volumes of ice-cold acetonitrile (containing internal standard glyburide). At the end of the incubation, samples plates were centrifuged, and supernatants reconstituted in water. Samples were then analyzed by LC/MS to assess parent depletion.
(§4) A ratio of compound peak area/internal standard peak area for each time point is generated and subsequently expressed as % of the response at time 0. The percentage stability of a compound in intestinal S9 solution at time t is calculated as detailed in Equation 1: […]
(§5) The half-life (t1/2) is calculated using the Equation 2: […]

[2] = In vitro conversion of pro-drug to parent compound by intestinal S9 fraction (dog); assay type: in vitro ADME; conditions: beagle, pooled intestinal S9 fraction, 37° C., read-out: T1/2 of conversion to the parent compound
Protocol: as §1, §2, §3, §4, §5

[3] = In vitro conversion of pro-drug to parent compound by intestinal S9 fraction (human); assay type: in vitro ADME; conditions: pooled intestinal S9 fraction, 37° C., read-out: T1/2 of conversion to the parent compound
Protocol: as §1, §2, §3, §4, §5

| Structure (SMILES) | IC50 (GIRK1/4) [µM] | half-life at 1 μM ([1]; rat intestinal S9, + cofactor (NADPH, UDPGA)) [min] | half-life at 1 μM ([1]; rat intestinal S9, − cofactor) [min] | half-life at 1 μM ([2]; dog intestinal S9, + cofactor (NADPH, UDPGA)) [min] | half-life at 1 μM ([2]; dog intestinal S9, − cofactor) [min] | half-life at 1 μM ([3]; human intestinal S9, + cofactor (NADPH, UDPGA)) [min] | half-life at 1 μM ([3]; human intestinal S9, − cofactor) [min] |
| --- | --- | --- | --- | --- | --- | --- | --- |
| CNC(=O)[C@@H](O)COc1ncc(Cl)c2c1c(=O)cc(C)n2-c1c(Cl)cc(OCCOP(=O)(O)O)cc1Cl [Example 1, (S)-2-(3,5-dichloro-4-(8-chloro-5-(2-hydroxy-3-(methylamino)-3-oxopropoxy)-2-methyl-4-oxo-1,6-naphthyridin-1 (4H)-yl)phenoxy)ethyl dihydrogen phosphate] | > 10 | – | – | – | – | – | – |
| CNC(=O)[C@@H](O)COc1ncc(Cl)c2c1c(=O)cc(C)n2-c1c(Cl)cc(OCCOP(=O)(O)O)cc1Cl.[Ca] [Example 1a, (S)-2-(3,5-dichloro-4-(8-chloro-5-(2-hydroxy-3-(methylamino)-3-oxopropoxy)-2-methyl-4-oxo-1,6-naphthyridin-1(4H)-yl)phenoxy)ethyl dihydrogen phosphate calcium salt] | – | 14.4 | 16.5 | 45.3 | 46 | 88.7 | 86.7 |
| CNC(=O)[C@H](COc1ncc(Cl)c2c1c(=O)cc(C)n2-c1c(Cl)cc(OCCO)cc1Cl)OP(=O)(O)O [Example 2, (S)-3-((8-chloro-1-(2,6-dichloro-4-(2-hydroxyethoxy)phenyl)-2-methyl-4-oxo-1,4-dihydro-1,6-naphthyridin-5-yl)oxy)-1-(methylamino)-1-oxopropan-2-yl dihydrogen phosphate] | > 10 | – | – | – | – | – | – |
